Assay results as given in patent publication US20130029959A1, “COMPOSITIONS AND METHODS FOR THE TREATMENT OF CANCER” (Massachusetts Institute of Technology, priority 2011, published 2013).
Entries after “also recorded” stand apart in the source; their conditions may differ.

How the values were obtained:
[1] = test system: human bone sarcoma U2OS cells; assay: MTT assay, U2OS cells; type: cell-based; conditions: 72-h incubation
Protocol: Human colon carcinoma HT29, human breast carcinoma MCF7, human bone sarcoma U2OS, human prostate carcinoma PC3, and human cervix carcinoma HeLa cells were obtained from the ATCC. A2780/CP70 cisplatin-resistant human ovarian cancer cells were kindly provided by Dr. Stephen B. Howell (Moores UCSD Cancer Center) and the human lung carcinoma cell lines A549 and normal lung fibroblast MRC5 by David E. Root (Whitehead Institute for Biomedical Research). Cells were incubated at 37° C. in 5% CO2 and grown in RPMI (HT29, A2780/CP70, and PC3) or DMEM (A549, MRC5, HeLa, MCF7, and U2OS) medium supplemented with 10% fetal bovine serum and 1% penicillin/streptomycin. Cells were passed every 3 to 4 days and restarted from a frozen stock upon reaching pass number 20.
Solutions of the platinum compounds were freshly prepared in sterile PBS before use and their concentrations quantitated by atomic absorption spectroscopy. […] The cells were then treated with 20 μL of 3-(4,5-dimethylthiazol-2-yl)-2,5-diphenyltetrazolium bromide (MTT) (5 mg/mL in PBS) and incubated for 4 h. The medium was removed, 100 μL of DMSO was added to the cells, and the absorbance of the purple formazan was recorded at 560 nm using a BioTek Synergy HT multi-detection microplate plate reader. Each condition was performed in triplicate and three independent experiments were carried out for each cell line. […]

[2] = test system: human colon carcinoma HT29 cells; assay: MTT assay, HT29 cells; type: cell-based; conditions: HT29, 72-h incubation, Table 5
Protocol: Solutions of the platinum compounds were freshly prepared in sterile PBS before use and their concentrations quantitated by atomic absorption spectroscopy. Cells were seeded on a 96-well plate (1200 cells per well for cancer cells and 1800 cells per well for the normal lung fibroblasts) in 100 μL RPMI or DMEM media, and incubated for 24 h. […] The medium was removed, 100 μL of DMSO was added to the cells, and the absorbance of the purple formazan was recorded at 560 nm using a BioTek Synergy HT multi-detection microplate plate reader. […]

[3] = test system: normal lung fibroblast MRC5; assay: MTT assay, MRC5 cells; type: cell-based, human; conditions: MRC5, 72-h incubation, Table 5
Protocol: (§6) Solutions of the platinum compounds were freshly prepared in sterile PBS before use and their concentrations quantitated by atomic absorption spectroscopy. Cells were seeded on a 96-well plate (1200 cells per well for cancer cells and 1800 cells per well for the normal lung fibroblasts) in 100 μL RPMI or DMEM media, and incubated for 24 h. […] The cells were then treated with 20 μL of 3-(4,5-dimethylthiazol-2-yl)-2,5-diphenyltetrazolium bromide (MTT) (5 mg/mL in PBS) and incubated for 4 h. The medium was removed, 100 μL of DMSO was added to the cells, and the absorbance of the purple formazan was recorded at 560 nm using a BioTek Synergy HT multi-detection microplate plate reader. Each condition was performed in triplicate and three independent experiments were carried out for each cell line.

[4] = test system: human cervix carcinoma HeLa cells; assay: MTT assay, HeLa cells; type: cell-based; conditions: 72-h incubation, Table 5
Protocol: as §6
Solutions of the platinum agents were freshly prepared in sterile PBS before use and the platinum content was quantitated by AAS. […] The medium was removed, 100 μL of DMSO were added to the cells, and the absorbance of the purple formazan was recorded at 570 nm using a BioTek Synergy HT multi-detection microplate plate reader. […]

[5] = test system: human lung carcinoma A549 cells; assay: MTT assay, A549 cells; type: cell-based
Protocol: as §6
Solutions of the platinum agents were freshly prepared in sterile PBS before use and the platinum content was quantitated by AAS. Cells were seeded on 96 well plates (1200 cells per well) in 100 μL RPMI or DMEM media\ and incubated for 24 hours. […] The cells were then treated with 20 μL of 3-(4,5-dimethylthiazol-2-yl)-2,5-diphenyltetrazolium bromide (MTT) (5 mg/mL in PBS) and incubated for 4 h. The medium was removed, 100 μL of DMSO were added to the cells, and the absorbance of the purple formazan was recorded at 570 nm using a BioTek Synergy HT multi-detection microplate plate reader. For each cell line, three independent experiments were carried out in triplicate.

NTera2 (Testis) cells = assay: MTT assay, NTera2 cells; type: cell-based, human; conditions: 72-h incubation, Table 3
Protocol: as §6

pGLuc plasmid = assay: Global platination of pGLuc plasmid; conditions: for level of DNA-bound compound per amount added (rb vs. rf): 16 h, 24 mM HEPES pH 7.4, 10 mM NaCl; for level of DNA-bound compound per amount added (rb vs. rf) / rb (bound Pt/nucleotide): 37° C.
Protocol: The resulting mixtures were dialyzed (molecular weight cut-off 3.5 kDa) against ddH2O overnight at 4° C. with five changes of ddH2O. The rb values (bound Pt/nucleotide) were determined by UV/Vis and atomic absorption spectroscopy.
In one embodiment, the ratio of bound platinum per plasmid was determined by measuring the Pt concentration by atomic absorption spectroscopy and the DNA concentration by UV/Vis spectroscopy.

[6] = test system: GLuc expression from transfected HT29 cells; assay: GLuc transcription assay, globally platinated probes, HT29; type: cell-based, human; conditions: for transcription inhibition, in words: globally platinated probes; for transcription level (normalized against unplatinated plasmid): Pt/DNA ratio of […] for phenanthriplatin
Protocol: (§1) Transfection of transcription probes into A549 and HT29 cells with the pGLuc plasmid was carried out using liposomal transfecting agents. Determination of expression levels was tested by Luciferase assays monitored by a luminometer (J. Am. Chem. Soc. 2010, 132, 7429-7435). A549 cells were plated in 96-well plates at 2,000 cells/well and HT29 cells were plated in 96-well plates at 6,000 cells/well. After 48 h incubation (at ˜30% confluence), cells were transfected with 50 ng of platinated plasmids in 25 μL Opti-MEM and 0.125 μL Lipofectamine 2000, and subsequently 50 μL of antibiotics-free DMEM supplemented with 10% FBS. After 2 h, the cells were washed with medium and 100 μL of fresh medium was added. The experiment was carried out in quadruplicate.
(§2) GLuc activity was monitored using a luminescence plate reader (Synergy 2, BioTek, Winooski, Vt., USA). A 10 μL volume of medium at different time points (12, 24, 36, 48, 60 h) was transferred into opaque white 96-well plates, and 25 μL of GLuc assay solution (10 μM colelenterazine (NanoLight Technologies, Pinetop, Ariz., USA) in 2.5 mM acidified methanol (100 mM HCl), buffer (10 mM Tris-HCl pH 7.8, 1 mM EDTA, 0.6 M NaCl)) was added by the automatic injector of the instrument.
(§3) Investigations of the cellular processing of Pt-DNA lesions are important for understanding the mechanism of action of platinum drugs. One of the major consequences of Pt-DNA damage is transcription inhibition, the extent of which dictates the efficacy of Pt drugs.
(§4) A549 or HT29 cells were transfected using these platinated transcription probes for 2 h at 37° C. and cell media were collected at 12, 24, 36, 48, and 60 h after the transfection. The levels of GLuc expression in cells were measured using a luminometer. The intensity values were normalized against controls (unplatinated plasmid). Transcription profiles were obtained by plotting normalized levels of GLuc expression against platination levels (Pt/plasmid ratio) at five different time points (FIG. 5). […] In FIG. 5: transcription profiles of globally platinated probes in A549 (top) and HT29 (bottom) cells.
(§5) In another embodiment, A549 or HT29 cells were transfected using the platinated transcription probes, and transcription levels were investigated by determining GLuc expression as measured by […] following addition of coelenterazine as a substrate for the exported enzyme. The emission intensities were normalized against unplatinated plasmids as a control. Transcription profiles were obtained by plotting normalized levels of GLuc expression against platination levels (Pt/plasmid ratio) at five different time points. […] An increase in D0 value at different time points represents restoration of transcription.

[7] = test system: GLuc expression from transfected A549 cells; assay: GLuc transcription assay, globally platinated probes, A549; type: cell-based, human; conditions: for transcription inhibition, in words: globally platinated probes; for transcription level (normalized against unplatinated plasmid): Pt/DNA ratio of […] for phenanthriplatin
Protocol: as §1, §2, §3, §4, §5

[8] = Aquation in D2O by 1H NMR; conditions: 37° C.
Protocol: The 1-D ^1H NMR kinetic studies were performed in duplicate as a standard time-arrayed experiment using a variable delayed list. Incremented 1-D spectra were processed in exactly the same way and signals of aromatic amine ligands from platinum compounds were integrated. The relative concentrations of the platinum compound at each time point were calculated from peak integrals. […] Reactions of platinum compounds with 5′-dGMP were performed in NMR tubes containing 2 mM of the platinum compounds and 32 mM (16 equiv) of 5′-dGMP in 10 mM PBS buffer, D2O, pH*7.4 at 37° C.

calf thymus DNA = assay: Ethidium bromide DNA-binding competition, Scatchard analysis; design: key: competitive (type A); non-competitive (type D); both (type B); No inhibition of ethidium binding is labeled as type C
Text: Using this approach, it is possible to determine whether the inhibition of ethidium binding is competitive (type A), non-competitive (type D), or both (type B). No inhibition of ethidium binding is labeled as type C.

[9] = 16 equiv 5′-dGMP, 37° C., PBS pH 7.4
Protocol: The 1-D ^1H NMR kinetic studies were performed in duplicate as a standard time-arrayed experiment using a variable delayed list. Incremented 1-D spectra were processed in exactly the same way and signals of aromatic amine ligands from platinum compounds were integrated. The relative concentrations of the platinum compound at each time point were calculated from peak integrals. […] Reactions of platinum compounds with 5′-dGMP were performed in NMR tubes containing 2 mM of the platinum compounds and 32 mM (16 equiv) of 5′-dGMP in 10 mM PBS buffer, D2O, pH*7.4 at 37° C. Deuterated 3-(trimethylsilyl)propionic acid sodium salt (TMS-PFASS) was used as an internal standard. The pH* values are the measured pH values without correction for the effect of deuterium on the electrode.

[10] = equimolar N-AcMet, 37° C.
Protocol: NMR spectra were collected on a Varian 500 spectrometer equipped with a triple-resonance broadband inverse probe and a variable temperature unit. The 1-D ^1H NMR kinetic studies were performed in duplicate as a standard time-arrayed experiment using a variable delayed list. Incremented 1-D spectra were processed in exactly the same way and signals of aromatic amine ligands from platinum compounds were integrated. The relative concentrations of the platinum compound at each time point were calculated from peak integrals. […] Reactions of platinum compounds with N-AcMet were performed in NMR tubes containing 2 mM of the Pt complex and 2 mM (1 equiv) of N-AcMet in 10 mM PBS buffer, D2O, pH*7.4 at 37° C. […] Deuterated 3-(trimethylsilyl)propionic acid sodium salt (TMS-PFASS) was used as an internal standard. The pH* values are the measured pH values without correction for the effect of deuterium on the electrode.
(pH*=refers to a pH measurement uncorrected for the effect of deuterium on the electrode.)

Molecule: O=[N+]([O-])[O-].[NH3+][Pt-2]([NH3+])([Cl])[n+]1cccc2ccccc21 (stereo not drawn) [cis-[Pt(NH3)2(quinoline)Cl]NO3]
- IC50 ([1]; U2OS, Table 5): 23.5 ± 2.7 µM
- IC50 [2]: 38 ± 4.5 µM
- IC50 [3]: 23.5 ± 1.6 µM
- IC50 [4]: 12.2 ± 0.8 µM
- IC50 ([5]; A549, 72-h incubation, Table 5): 6.11 ± 0.68 µM

Molecule: O=C1[O][Pt]2([NH][C@@H]3CCCC[C@H]3[NH]2)[O]C1=O [oxaliplatin]
- IC50 ([1]; U2OS (Bone), Table 3): 6.67 ± 0.59 µM
- IC50 ([5]; A549 (Lung), 72-h incubation, Table 3): 8.79 ± 0.26 µM
- IC50 (NTera2 (Testis) cells): 1210 ± 60 nM

Molecule: cis-[Pt(NH3)2(phenanthridine)Cl]NO3 [phenanthriplatin]
- level of DNA-bound compound per amount added (rb vs. rf) (pGLuc plasmid): almost identical to that of cisplatin
- rb (bound Pt/nucleotide) (pGLuc plasmid; rf 0.0008, 16 h): 0.0015
- rb (bound Pt/nucleotide) (pGLuc plasmid; rf 0.0019, 16 h): 0.0019
- rb (bound Pt/nucleotide) (pGLuc plasmid; rf 0.0029, 16 h): 0.0030
- rb (bound Pt/nucleotide) (pGLuc plasmid; rf 0.0060, 16 h): 0.0053
- transcription inhibition, in words [6]: as strongly as cisplatin; also recorded: as efficiently as cisplatin
- transcription inhibition, in words [7]: as strongly as cisplatin; also recorded: as efficiently as cisplatin
- time to complete aquation (equilibrium with aqua analogue) [8]: ≤ 1 h
- type of inhibition of ethidium binding (calf thymus DNA; 12-h incubation period): D
- type of inhibition of ethidium binding (calf thymus DNA; 1 min incubation period): C

Molecule: pyriplatin
- level of DNA-bound compound per amount added (rb vs. rf) (pGLuc plasmid): almost identical to that of cisplatin
- Pt per plasmid (pGLuc plasmid; rf 0.0016): 13.33 Pt per plasmid
- rb (bound Pt/nucleotide) (pGLuc plasmid; rf 0.0016, 16 h): 0.0017
- Pt per plasmid (pGLuc plasmid; rf 0.004): 31.19 Pt per plasmid
- rb (bound Pt/nucleotide) (pGLuc plasmid; rf 0.004, 16 h): 0.0039
- Pt per plasmid (pGLuc plasmid; rf 0.0076): 57.96 Pt per plasmid
- rb (bound Pt/nucleotide) (pGLuc plasmid; rf 0.0076, 16 h): 0.0073
- Pt per plasmid (pGLuc plasmid; rf 0.015): 117.31 Pt per plasmid
- rb (bound Pt/nucleotide) (pGLuc plasmid; rf 0.015, 16 h): 0.0015
- transcription level (normalized against unplatinated plasmid) ([6]; 12 h): 55.3%
- transcription level (normalized against unplatinated plasmid) ([6]; 60 h): 75.2%
- transcription inhibition, in words [6]: less efficient than that of either cisplatin or phenanthriplatin by a factor of two
- pseudo-first order rate constant, reaction with 5′-dGMP [9]: 0.29 h⁻¹
- transcription level (normalized against unplatinated plasmid) ([7]; 12 h): 55.2%
- transcription level (normalized against unplatinated plasmid) ([7]; 60 h): 66.8%
- transcription inhibition, in words [7]: less efficient than that of either cisplatin or phenanthriplatin by a factor of two
- reaction with N-AcMet more rapid than that for phenanthriplatin [10]: > 10 fold
- second-order rate constant, reaction with N-AcMet [10]: 0.56 mM⁻¹ h⁻¹
- IC50 [3]: 82.1 µM
- time to complete aquation (equilibrium with aqua analogue) [8]: ≤ 1 h
- IC50 ([5]; A549, 72-h incubation, Table 5): 62.1 ± 2.3 µM
- type of inhibition of ethidium binding (calf thymus DNA; 12-h incubation period): C
- type of inhibition of ethidium binding (calf thymus DNA; 1 min incubation period): C
